How the values were obtained:
K562 [1] = experiment: Cell cycle arrest in human K562 cells assessed as accumulation of cells at G2 phase at 10 nM after 48 hrs by propidium iodide staining-based flow cytometric analysis (reference value: 15.82%); assay type: functional
K562 [2] = experiment: Cell cycle arrest in human K562 cells assessed as accumulation of cells at S phase at 10 nM after 48 hrs by propidium iodide staining-based flow cytometric analysis (reference value: 36.27%); assay type: functional
K562 [3] = experiment: Cell cycle arrest in human K562 cells assessed as accumulation of cells at G1 phase at 10 nM after 48 hrs by propidium iodide staining-based flow cytometric analysis (reference value: 47.91%); assay type: functional
K562 [4] = experiment: Antiproliferative activity against human K562 cells after 72 hrs by MTT assay; assay type: functional, cell-based; conditions: K562, 72 h
KB = experiment: Antiproliferative activity against human KB cells after 72 hrs by MTT assay; assay type: functional, cell-based
L02 = experiment: Cytotoxicity against human LO2 cells after 72 hrs by MTT assay; assay type: cell-based; conditions: L02, 72 h
K562 [5] = experiment: Induction of apoptosis in human K562 assessed as late apoptotic cells at 5 nM after 48 hrs by Annexin V-APC/propidium iodide staining-based flow cytometric analysis (reference value: 1.30%); assay type: functional
K562 [6] = experiment: Induction of apoptosis in human K562 assessed as necrotic cells at 5 nM after 48 hrs by Annexin V-APC/propidium iodide staining-based flow cytometric analysis (reference value: 1.92%); assay type: functional
K562 [7] = experiment: Induction of apoptosis in human K562 assessed as late apoptotic cells at 20 nM after 48 hrs by Annexin V-APC/propidium iodide staining-based flow cytometric analysis (reference value: 1.30%); assay type: functional
K562 [8] = experiment: Induction of mitochondrial membrane potential disruption in human K562 cells assessed as collapsed mitochondrial membrane potential at 20 nM after 48 hrs by JC-1 staining-based flow cytometric analysis (reference value: 0.63%); assay type: functional
HUVEC = experiment: Antiproliferative activity against human HUVEC cells after 24 hrs by MTT assay; assay type: cell-based
[9] = Toxicity in ICR mouse assessed as mouse survival at 640 mg/kg, iv for 14 days relative to control; assay type: organism-based; conditions: in vivo
[10] = Toxicity in iv dosed ICR mouse assessed as mouse survival for 14 days; assay type: organism-based; conditions: in vivo
[11] = Cardiotoxicity in ICR mouse xenografted with […] cells at 10 to 20 mg/kg, iv qd for 21 consecutive days by H and E staining-based assay; assay type: toxicity, organism-based; conditions: in vivo

## COc1ccc(/C=C(\C)C(=O)c2cc(C)nc3ccccc23)cc1O
K562 [1]
  Activity: 22.85%
K562 [2]
  Activity: 24.94%
K562 [3]
  Activity: 52.22%
K562 [4]
  IC50: 9 nM
KB
  IC50: 16 nM
L02
  IC50: 987 nM
K562 [5]
  Activity: 4.34%
K562 [6]
  Activity: 2.63%
K562 [7]
  Activity: 23.28%
K562 [8]
  Activity: 53.39%
HUVEC
  IC50: 250 nM
[9]
  survival at 336 h: 60%
[10]
  LD50 at 336 h: 666 mg/kg
[11]
  Activity: Non-Toxic
